The target in one series is TRPC5 channel (Homo sapiens (Human), UniProt Q9UL62). Put plainly: TRPC5 calcium flux assay (Fluo-4, FLIPR) in TRPC5-HEK 293 cells. The conditions noted are these: for IC50: 0.3 nM Englerin A. The series is classed as cell-based. The method, then: TRPC5 is a type of non-selective cation channel with permeability to calcium ions. […] Fluo-4 AM fluorescence dye was used to indirectly reflect the effect of the compound on TRPC5 channel by detecting intracellular Ca^2+ in TRPC5-HEK 293 cells.
Chain of TRPC5 channel (Q9UL62 whole entry): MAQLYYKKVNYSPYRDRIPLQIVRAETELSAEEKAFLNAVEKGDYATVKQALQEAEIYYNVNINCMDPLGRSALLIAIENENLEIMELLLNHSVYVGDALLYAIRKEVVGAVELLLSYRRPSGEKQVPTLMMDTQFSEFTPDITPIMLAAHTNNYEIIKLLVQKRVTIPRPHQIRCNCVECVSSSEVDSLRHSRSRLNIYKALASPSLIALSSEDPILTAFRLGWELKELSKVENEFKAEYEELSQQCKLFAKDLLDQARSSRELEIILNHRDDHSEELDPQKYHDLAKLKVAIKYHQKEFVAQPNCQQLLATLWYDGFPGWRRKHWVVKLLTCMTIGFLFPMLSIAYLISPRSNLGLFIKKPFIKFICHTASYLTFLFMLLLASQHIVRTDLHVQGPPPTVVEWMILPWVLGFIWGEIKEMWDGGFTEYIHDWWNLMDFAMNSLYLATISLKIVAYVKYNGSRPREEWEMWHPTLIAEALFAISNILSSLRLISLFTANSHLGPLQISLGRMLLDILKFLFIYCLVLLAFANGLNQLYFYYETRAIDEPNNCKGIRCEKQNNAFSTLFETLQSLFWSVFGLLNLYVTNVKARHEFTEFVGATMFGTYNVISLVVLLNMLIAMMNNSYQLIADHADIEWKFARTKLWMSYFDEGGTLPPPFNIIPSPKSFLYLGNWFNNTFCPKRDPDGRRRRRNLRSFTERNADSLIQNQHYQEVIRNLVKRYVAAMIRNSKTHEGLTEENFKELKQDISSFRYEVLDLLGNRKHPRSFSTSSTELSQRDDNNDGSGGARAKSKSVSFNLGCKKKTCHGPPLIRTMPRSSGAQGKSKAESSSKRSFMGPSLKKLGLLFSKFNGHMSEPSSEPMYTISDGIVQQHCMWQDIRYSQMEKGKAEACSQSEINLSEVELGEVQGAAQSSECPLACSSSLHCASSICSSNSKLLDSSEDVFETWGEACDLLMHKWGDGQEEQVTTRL
• Revival solution: 100% high glucose DMEM • Selection medium: high glucose DMEM+10% FBS+1% P/S+1% HEPES+Blasticidin (5 μg/mL)+Hygromycine (50 μg/mL) • Induction medium: high glucose DMEM+10% FBS+1% P/S+1% HEPES+Doxycycline (1 μg/mL)
14 hours before the real-time fluorescence experiment, cells were washed with PBS and digested with trypsin-EDTA. Cells were diluted to 200,000 cells/mL with induction medium and seeded onto a 96-well black wall bottom transparent plate coated with poly-D-lysine (PDL) (stock solution of 10 mg/mL, final concentration of 10 μg/mL) at 100 μL/well, i.e., 20,000 cells/well.
500 mL of external solution for detecting TRPC5 calcium signals: 4.0908 g of NaCl, 0.1864 g of KCl, 0.111 g of CaCl2, 0.0476 g of MgCl2, 0.9 g of glucose, 1.1915 g of HEPES (2-[4-(2-hydroxyethyl)piperazin-1-yl]ethanesulfonic acid).
Calcium fluorescent dye: an external solution for detecting TRPC5 calcium signals containing Fluo-4 with a final concentration of 4 μM (containing 0.5% BSA)
Positive inhibitor concentration: 100 nM
The dose-effect diagram was used to calculate AUC (area under the curve of the curve formed by the calcium flux signal), and the data and the log of the compound concentration were collected. The IC50 value was calculated using log[Inhibitor] vs. response Variable slope.
TRPC5 is a type of non-selective cation channel with permeability to calcium ions. […] Fluo-4 AM fluorescence dye was used to indirectly reflect the effect of the compound on TRPC5 channel by detecting intracellular […] in TRPC5-HEK 293 cells.
1. Cell culture 1.1 Revival of TRPC5-HEK 293 cells • Revival solution: 100% high glucose DMEM • Selection medium: high glucose DMEM+10% FBS+1% P/S+1% HEPES+Blasticidin (5 μg/mL)+Hygromycine (50 μg/mL) • Induction medium: high glucose DMEM+10% FBS+1% P/S+1% HEPES+Doxycycline (1 μg/mL)
14 hours before the real-time fluorescence experiment, cells were washed with PBS and digested with trypsin-EDTA (TE). Cells were diluted to 200,000 cells/mL with induction medium and seeded onto a 96-well black wall bottom transparent plate coated with poly-D-lysine (PDL) (stock solution of 10 mg/mL, final concentration of 10 μg/mL) at 100 μL/well, i.e., 20,000 cells/well.
On the technique in general: Calcium flux is commonly read through the fluorescence of an indicator in the cells.

Series [1] can be described thus: Liver microsome half-life assay, human. The series is classed as in vitro ADME. The note with it: for half-life: human, liver microsomes, 1 mg/mL liver microsomal protein, 37° C., read-out: Liver microsome T½ (min) Human; for metabolic stability in liver microsomes: compared with compounds C001 and C002, statement on Table 12, species not specified. Here is the method:
(§1) The in vitro metabolic stability of the compounds of the present disclosure was determined using warm incubation method of liver microsomes in various species. A proper amount of test compound was added to the liver microsomal reaction system (1 mg/mL liver microsomal protein, 25 U/mL glucose-6-phosphate dehydrogenase, 1 mM NADP, 6 mM D-glucose 6-phosphate, 5 mM MgCl2), and the reaction was started by warm incubation in a water bath at 37° C., then 100 μL of the reaction mixture at each time point was added to a centrifuge tube containing 400 μL of internal standard working solution precooled at 0° C. (containing a solution of 200 ng/mL dexamethasone, diclofenac, tolbutamide, and labetalol in acetonitrile), then the reaction was terminated, centrifuged at 4° C. and 10,000 g for 10 min, and the supernatant was taken into LC-MS for analysis and detection to obtain in vitro metabolic half-lives of the test compounds in liver microsomes of various species.
A general note: Liver microsomes are a subcellular fraction often used to study metabolism.

Series [2] in a line: Liver microsome half-life assay, mouse. Format: in vitro ADME. The conditions noted are these: liver microsomes, 1 mg/mL liver microsomal protein, 37° C., read-out: Liver microsome T½ (min) Mouse. The method, then:
as §1

Series [3] is described as follows: Liver microsome half-life assay, rat. The note with it: liver microsomes, 1 mg/mL liver microsomal protein, 37° C., read-out: Liver microsome T½ (min) Rat. Format: in vitro ADME. The method, then:
as §1

Series [4] is described as follows: Liver microsome half-life assay, beagle dog. The series is classed as in vitro ADME. The conditions noted are these: liver microsomes, 1 mg/mL liver microsomal protein, 37° C., read-out: Liver microsome T½ (min) Beagle dog. The method, then: as §1
Series [5] is described as follows: Liver microsome half-life assay, monkey. The series is classed as in vitro ADME. The conditions noted are these: liver microsomes, 1 mg/mL liver microsomal protein, 37° C., read-out: Liver microsome T½ (min) Monkey. Here is the method:
as §1

Series [6] in a line: Pharmacokinetic study in mice in vivo (gavage and tail vein injection). The note with it: mouse, plasma; for AUC(0-t) / Cmax: dose 1 mg/kg; for bioavailability: 1 mg/kg, p.o. vs i.v. From the text: […] Mouse plasma was collected at a specific time point after administration, and the concentration of the compound in plasma was detected by LC-MS/MS (AB SCIEX Qtrap4500). PK parameters of each compound (WinNonlin V5.2, Pharsight) were statistically analyzed and calculated to reflect the pharmacokinetic properties of the compounds of the present disclosure in mice in vivo.

Where [7] appears, read: Table 11, read-out: TRPC5 inhibitory activity, IC50.

Where two headings read alike, the source gives them in different places. Some results are limits rather than exact numbers.

Regarding `N#Cc1ccc(C(=O)c2cnc3n2CCN(c2cn[nH]c(=O)c2Cl)C3)c(C(F)(F)F)c1` [Compound L019, 4-(7-(5-chloro-6-oxo-1,6-dihydropyridazin-4-yl)-5,6,7,8-tetrahydroimidazo[1,2-a]pyrazine-3-carbonyl)-3-(trifluoromethyl)benzonitrile], at TRPC5 channel (setting [7]), the concentration for half-maximal inhibition (IC50) is 24 nM.
`O=c1[nH]ncc(N2CCn3c(Cc4cc(F)ccc4C(F)(F)F)cnc3C2)c1Cl` [Compound L013, 4-chloro-5-(3-(5-fluoro-2-(trifluoromethyl)benzyl)-5,6-dihydroimidazo[1,2-a]pyrazin-7(8H)-yl)pyridazin-3(2H)-one]: the IC50 at TRPC5 channel (setting [7]) is 14.6 nM. The half-life was found to be 148 min in series [1] and 131 min in series [2].
Turning to `O=c1[nH]ncc(N2CCn3c(Cc4ccc(F)cc4Cl)cnc3C2)c1Cl` [Compound L009], the IC50 at TRPC5 channel (setting [7]) is 39.4 nM.
On to `O=c1[nH]ncc(N2CCc3c(ncn3Cc3ccccc3C(F)(F)F)C2)c1Cl` [Compound C001, reference compound], for which the half-life worked out at 54 min in series [1]; 5 min in series [3]; 60 min in series [2]; 15 min in series [4]; 38 min in series [5].
In the case of `O=c1[nH]ncc(N2CCn3c(Cc4ccc(F)cc4C(F)(F)F)cnc3C2)c1Cl` [Compound L002, 4-chloro-5-(3-(4-fluoro-2-(trifluoromethyl)benzyl)-5,6-dihydroimidazo[1,2-a]pyrazin-7(8H)-yl)pyridazin-3(2H)-one], the IC50 at TRPC5 channel (setting [7]) stood at 6.52 nM. For the same molecule, in series [1], the “metabolic stability in liver microsomes” value was “significantly improved” and the half-life came out at 262 min. Besides, the half-life in series [2] was 188 min. In series [6] (iv), this molecule yielded an exposure AUC(0-t) of 1450 ng·h/mL and a Cmax of 833 ng/mL. In series [6] (po), the bioavailability stood at 43.2%, the AUC(0-t) was 625 ng·h/mL and the Cmax came to 248 ng/mL.
Turning to `O=c1[nH]ncc(N2CCn3c(Cc4ccc(F)cc4C(F)F)cnc3C2)c1Cl` [Compound L007], at TRPC5 channel (setting [7]), the 50% inhibitory concentration (IC50) turned out to be 7.37 nM.
As to `N#Cc1ccc(Cc2cnc3n2CCN(c2cn[nH]c(=O)c2Cl)C3)c(C(F)(F)F)c1` [Compound L014, 4-((7-(5-chloro-6-oxo-1,6-dihydropyridazin-4-yl)-5,6,7,8-tetrahydroimidazo[1,2-a]pyrazin-3-yl)methyl)-3-(trifluoromethyl)benzonitrile], the IC50 on TRPC5 channel (setting [7]) came to 18.2 nM. The half-life in series [1] came to 7590 min. Also, the half-life in series [2] turned out to be 167 min. Also, in series [6] (iv), the exposure AUC(0-t) was determined as 663 ng·h/mL and the Cmax was 762 ng/mL. In series [6] (po), the bioavailability came out at 161%, the AUC(0-t) is 1070 ng·h/mL and the Cmax worked out at 301 ng/mL.
On to `O=c1[nH]ncc(N2CCc3c(ncn3Cc3ccc(F)cc3C(F)(F)F)C2)c1Cl` [Compound C002, reference compound], for which the half-life in series [1] was determined as 90 min; in series [3], 34 min; in series [2], 115 min; in series [4] it was 102 min; in series [5], 15 min.
On to `O=c1[nH]ncc(N2CCn3c(Cc4ccccc4C(F)(F)F)cnc3C2)c1Cl` [Compound L001, 4-chloro-5-(3-(2-(trifluoromethyl)benzyl)-5,6-dihydroimidazo[1,2-a]pyrazin-7(8H)-yl)pyridazin-3(2H)-one], for which, at TRPC5 channel (setting [7]), the IC50 came to 10.8 nM. Moreover, in series [1], the “metabolic stability in liver microsomes” value is “significantly improved” and the half-life was 173 min. Moreover, the half-life in series [3] turned out to be 20 min. Moreover, the half-life in series [2] amounted to 154 min. In addition, in series [6] (iv), the AUC(0-t) amounted to 225 ng·h/mL and the concentration peaked (Cmax) at 225 ng/mL. In series [6] (po), the bioavailability was found to be 80.6%, the AUC(0-t) was determined as 84.3 ng·h/mL and the Cmax was 84.3 ng/mL.
Take `O=C(c1ccc(F)cc1C(F)(F)F)c1cnc2n1CCN(c1cnn(COP(=O)(O)O)c(=O)c1Cl)C2` [Compound 1, (5-chloro-4-(3-(4-fluoro-2-(trifluoromethyl)benzoyl)-5,6-dihydroimidazo[1,2-a]pyrazin-7(8H)-yl)-6-oxopyridazin-1(6H)-yl)methyl dihydrogen phosphate]: at TRPC5 channel, the “inhibitory activity against TRPC5 channels” value is on record as “no inhibitory activity”. Further, the IC50 at TRPC5 channel (Table 1, read-out: TRPC5 inhibitory activity, IC50) is greater than 10000 nM.

In general, IC50 refers to the concentration that inhibits the measured activity by half. A word on the AUC(0-t): it is exposure summed from dosing to a finite time, without extrapolation to infinity. As usually defined, the Cmax is the highest concentration seen after dosing.
